Measurements from ChEMBL document CHEMBL1155071, “Discovery of novel 1,2,3,4-tetrahydroisoquinolines and 3,4-dihydroisoquinoline-1(2H)-ones as potent and selective inhibitors of KDR: synthesis, SAR, and pharmacokinetic properties” (Bioorg Med Chem Lett, 2008).
Values after ≈ are worked out from the molar mass of the structure shown.

Test system: HUVEC
Assay: Antiproliferative activity against VEGF-induced HUVEC
Assay type: functional, cell-based
Conditions: Homo sapiens

SMILES | IC50 [nM]
COc1cc2nccc(CN3CCc4c(cccc4C(=O)Nc4ccc(C(C)(C)C)cc4)C3)c2cc1OC | 6
COc1cc2nccc(CN3CCc4c(C(=O)Nc5ccc(Cl)c(C(F)(F)F)c5)cccc4C3=O)c2cc1OC | 22

Test system: not listed separately
Assay: Aqueous solubility in simulated intestinal fluid at pH 6.8
Assay type: physicochemical
Conditions: not given

SMILES | solubility [µg/mL]
COc1cc2nccc(CN3CCc4c(cccc4C(=O)Nc4ccc(Cl)cc4)C3)c2cc1OC | 12 (≈ 24.6 µM)
COc1cc2nccc(CN3CCc4c(cccc4C(=O)Nc4ccc(C(C)(C)C)cc4)C3)c2cc1OC | 34 (≈ 66.7 µM)
COCCNC(=O)c1cccc2c1CCN(Cc1ccnc3cc(OC)c(OC)cc13)C2 | > 200
COc1cc2nccc(CN3CCc4c(C(=O)Nc5ccc(Cl)c(C(F)(F)F)c5)cccc4C3=O)c2cc1OC | 24 (≈ 42.1 µM)

Test system: HUVEC
Assay: Antiproliferative activity against FGF-induced HUVEC
Assay type: functional, cell-based
Conditions: Homo sapiens

SMILES | IC50 [nM]
COc1cc2nccc(Oc3ccc4c(C(=O)Nc5ccc(Cl)cc5)cccc4c3)c2cc1OC | > 1140
COc1cc2nccc(CN3CCc4c(cccc4C(=O)Nc4ccc(C(C)(C)C)cc4)C3)c2cc1OC | > 1140
COc1cc2nccc(CN3CCc4c(C(=O)Nc5ccc(Cl)c(C(F)(F)F)c5)cccc4C3=O)c2cc1OC | > 1140

Biological target: Vascular endothelial growth factor receptor 2 (Homo sapiens, UniProt P35968)
Assay: Inhibition of KDR
Conditions: not given

Vascular endothelial growth factor receptor 2, sequence (P35968 whole entry): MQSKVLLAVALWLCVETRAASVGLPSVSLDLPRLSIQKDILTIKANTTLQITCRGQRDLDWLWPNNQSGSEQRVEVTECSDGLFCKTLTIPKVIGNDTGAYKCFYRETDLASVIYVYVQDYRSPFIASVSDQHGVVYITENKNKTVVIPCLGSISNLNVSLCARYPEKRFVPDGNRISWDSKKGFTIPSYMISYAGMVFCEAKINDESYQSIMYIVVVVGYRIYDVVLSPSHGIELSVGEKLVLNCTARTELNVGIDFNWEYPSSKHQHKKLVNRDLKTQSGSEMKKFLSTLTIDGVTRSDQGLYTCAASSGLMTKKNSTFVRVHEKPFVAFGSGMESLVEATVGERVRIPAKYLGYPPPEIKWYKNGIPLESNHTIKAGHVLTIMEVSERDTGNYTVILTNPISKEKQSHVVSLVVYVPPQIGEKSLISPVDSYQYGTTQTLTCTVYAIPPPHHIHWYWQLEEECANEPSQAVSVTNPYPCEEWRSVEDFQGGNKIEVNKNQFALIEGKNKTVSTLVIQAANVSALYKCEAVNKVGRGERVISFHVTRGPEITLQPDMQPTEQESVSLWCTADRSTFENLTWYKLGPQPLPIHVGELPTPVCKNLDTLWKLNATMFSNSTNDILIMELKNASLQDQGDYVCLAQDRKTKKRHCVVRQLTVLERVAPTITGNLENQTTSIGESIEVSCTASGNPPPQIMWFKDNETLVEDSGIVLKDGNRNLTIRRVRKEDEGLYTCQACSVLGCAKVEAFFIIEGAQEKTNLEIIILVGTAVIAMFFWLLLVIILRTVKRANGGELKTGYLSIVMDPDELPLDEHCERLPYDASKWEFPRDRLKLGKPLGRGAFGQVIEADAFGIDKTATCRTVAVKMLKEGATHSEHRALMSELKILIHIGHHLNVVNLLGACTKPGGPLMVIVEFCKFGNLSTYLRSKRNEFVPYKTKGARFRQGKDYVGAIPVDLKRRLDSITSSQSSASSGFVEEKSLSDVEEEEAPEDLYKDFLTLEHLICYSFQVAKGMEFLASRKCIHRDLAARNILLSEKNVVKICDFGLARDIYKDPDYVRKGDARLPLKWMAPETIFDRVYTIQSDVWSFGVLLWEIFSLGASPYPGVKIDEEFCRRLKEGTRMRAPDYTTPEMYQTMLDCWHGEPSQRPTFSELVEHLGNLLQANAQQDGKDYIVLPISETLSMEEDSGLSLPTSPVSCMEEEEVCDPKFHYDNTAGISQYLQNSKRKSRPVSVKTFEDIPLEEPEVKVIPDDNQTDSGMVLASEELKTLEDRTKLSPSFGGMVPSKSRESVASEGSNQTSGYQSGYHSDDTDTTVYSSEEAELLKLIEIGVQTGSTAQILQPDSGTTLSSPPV

SMILES | IC50 [nM]
COc1cc2nccc(CN3CCc4c(cccc4C(=O)Nc4ccc(Cl)cc4)C3)c2cc1OC | 165
COc1cc2nccc(CN3CCc4c(cccc4C(=O)Nc4ccc(C(C)(C)C)cc4)C3)c2cc1OC | 1
COCCNC(=O)c1cccc2c1CCN(Cc1ccnc3cc(OC)c(OC)cc13)C2 | 3000
COc1cc2nccc(CN3CCc4c(C(=O)Nc5ccc(Cl)c(C(F)(F)F)c5)cccc4C3=O)c2cc1OC | 3
